{
  "source": "patent EP2308983B1",
  "about": "“Cytochrome P450 from Rhizopus oryzae and uses thereof” (Univerza v Ljubljani, priority 2009, dated 2011)",
  "key": {"[1]": {"system": "CYP509C12", "test": "Real time RT PCR of P450 gene expression in fungus exposed to progesterone", "format": "cell-based, R. oryzae", "settings": "300 µM progesterone, up-regulated within 20 minutes, Wilcoxon's test p value < 0.05", "experimental": "(§1) Samples of 2 µg of RNA were treated with DNAse 1 and reverse-transcribed with random hexamer primers using RevertAid™ H Minus First Strand cDNA Synthesis Kit (Fermentas, Canada) following the manufacturer's instructions. Based on multiple alignments of deduced P450 families, the amplification of the cDNA of 31 P450 genes was carried out under conventional conditions using gene-specific primers which were designed with Primer Express (Applied Biosystems, CA, USA, (AB)). The specificity of each primer pair was verified by sequencing of amplified genomic fragments (Sequiserve, Vaterstetten, Germany).\n(§2) Quantitative RT PCR using SYBR green Mastermix (AB) was performed for 9 selected genes in an ABI Prism 7500 Real Time System (AB) according to the manufacturer's instructions. Following amplification, a dissociation curve was performed on all PCR products to additionally ensure their specificity. The relative quantity of cDNA was calculated with the standard curve method and calibrated with a R. oryzae housekeeping Rossb1 gene (Broad ref. RO3G_01864.1), a homologue of the Saccharomyces cerevisiae ribosome-associated Hsp70 (SSB1), whose expression is not affected by steroid treatment. The expression levels of each P450 gene were normalized to those in the untreated control. The statistical significance of up- or down-regulation was evaluated using Wilcoxon's test with a cutoff p-value < 0.05."}, "[2]": {"system": "CYP509C10", "settings": "300 µM progesterone, up-regulated within 20 minutes, Wilcoxon's test p value < 0.05", "experimental": "as §1, §2"}, "[3]": {"system": "CYP5204A1", "test": "Real time RT PCR of P450 gene expression in fungus exposed to progesterone", "format": "cell-based, R. oryzae", "settings": "300 µM progesterone, up-regulated within 20 minutes, Wilcoxon's test p value < 0.05", "experimental": "as §1, §2"}, "[4]": {"system": "CYP509C12", "test": "Steroid hydroxylation assay of recombinant S. pombe strain SpoC12 expressing CYP509C12 (whole-cell biotransformation, HPLC and LC/MS)", "settings": "for efficiency of total steroid hydroxylation: 28 °C", "description": "S. pombe cells, grown as described in the previous section, were washed with EMM, centrifuged (4000 × g, 5 min, 4 °C) and suspended in 10 mL of fresh medium to a final density of 10^8 cells mL^-1. […] 500 µL of SpoC12 yeast culture was taken after different time periods and the steroids were extracted twice with chloroform, evaporated, solved in acetonitrile, and analyzed by HPLC. The steroid extracts from whole cell cultures growing for 24 h were analyzed by LC/MS.\nReverse phase HPLC using an isocratic solvent system of acetonitrile:H2O 60:40 (v/v) as mobile phase, flow rate […], was carried out on a WellChrom system (Knauer, Berlin, Germany) composed of an auto-sampler AS-2050 plus, Mini-Star K-500 pump, Jet Stream II Plus thermostat, and an UV-detector WellChrom Spectro Photometer K-2600, equipped with a C18 ODS Hypersil 250 x 4.6 mm, 5 µm particle column from Thermo® (Waltham, MA, USA). Steroids were detected at 240 nm and the peak area calculation was done using the EuroChrom 2000 software (Knauer). Steroid standards were used to identify the HPLC peaks and to construct calibration curves. Concentrations of steroids were determined using calibration curves in the range of 0.05 -1 mg mL^-1 of each analyte. […] The peak area of a specific steroid at each time point was assessed relative to the total area of identified steroid peaks.\nMass measurements were run on a hybrid quadruple time of flight mass spectrometer (Q-TOF) provided with an orthogonal Z-spray ESI interface (Waters Micromass, Manchester, UK). Mass spectrometer was interfaced to an ultra performance liquid chromatography (UPLC) system based on a Waters Acquity (Waters, Milford, USA) binary pump with a BEH C-18 column (1.7 µm, 50 mm x 2.1 mm i.d.). The mobile phases consisted of water and acetonitrile with mixture of 0.1 % of formic acid in water. Compressed nitrogen (99.999 %, Messer, Slovenia) was used as both the drying and the nebulizing gas. The nebulizer gas flow rate was set to approximately 20 L h^-1 and the desolvation gas flow rate to 600 L h^-1. A cone voltage of 30 V and a capillary voltage of 2.7 kV were used in positive ion mode. The desolvation temperature was set to 250 °C and the source temperature to 150 °C. The mass resolution of approximately 9500 was used for determination of elemental composition with TOF mass spectrometer. Full width of the peak was measured at half of its maximum height. MS were acquired in centroid mode over an m/z range of 50-1000 in scan time 0.25 s and inter scan time 0.05 s. The data station operating software was Mass Lynx v 4.1 (Micromass, Manchester)."}, "[5]": {"settings": "SpoC12, 300 µM steroid, 24 h, LC/MS"}},
  "data": [
    {"smiles": "CC(=O)[C@H]1CC[C@H]2[C@@H]3CCC4=CC(=O)CC[C@]4(C)[C@H]3CC[C@]12C", "note": "[progesterone]", "values": [
      {"measurement": "transcript amount increase compared to the control", "setting": "[1]", "result": "at least 32 fold"},
      {"measurement": "transcript amount increase compared to the control", "setting": "[2]", "result": "at least 32 fold"},
      {"measurement": "transcript amount increase compared to the control", "setting": "[3]", "result": "at least 32 fold"},
      {"measurement": "slower rate of progesterone hydroxylation in recombinant fission yeast compared to R. oryzae cultures", "setting": "[4]; SpoC12 versus R. oryzae cultures", "result": 10, "unit": "fold"}
    ]},
    {"smiles": "C[C@]12CC[C@H]3[C@@H](CCC4=CC(=O)CC[C@@]43C)[C@@H]1CC[C@@H]2O", "note": "[testosterone]", "values": [
      {"measurement": "efficiency of total steroid hydroxylation", "setting": "[4]; [5]", "result": 73, "unit": "%"}
    ]},
    {"smiles": "C[C@]12CC[C@H]3[C@@H](CCC4=CC(=O)CC[C@@]43C)[C@@H]1CC[C@@H]2C(=O)CO", "note": "[DOC, 11-deoxycorticosterone]", "values": [
      {"measurement": "efficiency of total steroid hydroxylation", "setting": "[4]; [5]", "result": 96, "unit": "%"}
    ]},
    {"smiles": "C[C@]12CCC(=O)C=C1CC[C@@H]1[C@@H]2CC[C@@]2(C)[C@H]1CC[C@]2(O)C(=O)CO", "note": "[RSS, 11-deoxycortisol]", "values": [
      {"measurement": "efficiency of total steroid hydroxylation", "setting": "[4]; [5]", "result": 30, "unit": "%"},
      {"measurement": "share of 6β-hydroxylated derivative in total hydroxylated products", "setting": "[4]; [5]", "result": "more than half"}
    ]}
  ]
}
